From ChEMBL document CHEMBL5550189, “Discovery of GS-7682, a Novel 4'-Cyano-Modified C-Nucleoside Prodrug with Broad Activity against Pneumo- and Picornaviruses and Efficacy in RSV-Infected African Green Monkeys” (J Med Chem, 2024)

Key:
[1] = system: Respiratory syncytial virus; experiment: Antiviral activity against RSV A2 infected in Normal human bronchial epithelial cells incubated for 3 days by ONE-Glo luciferase assay; format: functional, organism-based; conditions: A2, Epithelial cell, 72 h
[2] = system: Respiratory syncytial virus; experiment: Antiviral activity against RSV A2 infected in human HEp-2 cells incubated for 4 days by Cell Titer Glo assay; format: functional, organism-based; conditions: A2, HEp-2, 96 h
[3] = Cytotoxicity against human Hep-2 cells incubated for 4 to 5 days by Cell Titer Glo assay; format: toxicity, cell-based; conditions: time 4-5 day
[4] = Cytotoxicity against human MT4 cells incubated for 5 days by Cell Titer Glo assay; format: toxicity, cell-based; conditions: time 5 day
[5] = Distribution coefficient, log D of compound measured after 30 mins by HPLC/UV analysis; format: physicochemical; conditions: octanol/water
[6] = Prodrug conversion in Normal human bronchial epithelial cells assessed as ((2R,3S,4R,5S)-5-(4-aminopyrrolo[2,1-f][1,2,4]triazin-7-yl)-2-cyano-3,4-dihydroxytetrahydrofuran-2-yl)methyl tetrahydrogen triphosphate formation measured per million cells at 10 uM incubated for 2 hrs by LC-MS/MS analysis; format: ADME, cell-based; conditions: epithelial cell
[7] = target: T1, DNA-directed RNA polymerase, mitochondrial (Homo sapiens, UniProt O00411); experiment: Inhibition of recombinant human POLRMT assessed as single-nucleotide incorporation rate at 500 uM measured for 60 mins in presence of ATP by imaging analysis relative to control; parameters: scale not given: the % may be the effect or the level left
T1 sequence (O00411 whole entry): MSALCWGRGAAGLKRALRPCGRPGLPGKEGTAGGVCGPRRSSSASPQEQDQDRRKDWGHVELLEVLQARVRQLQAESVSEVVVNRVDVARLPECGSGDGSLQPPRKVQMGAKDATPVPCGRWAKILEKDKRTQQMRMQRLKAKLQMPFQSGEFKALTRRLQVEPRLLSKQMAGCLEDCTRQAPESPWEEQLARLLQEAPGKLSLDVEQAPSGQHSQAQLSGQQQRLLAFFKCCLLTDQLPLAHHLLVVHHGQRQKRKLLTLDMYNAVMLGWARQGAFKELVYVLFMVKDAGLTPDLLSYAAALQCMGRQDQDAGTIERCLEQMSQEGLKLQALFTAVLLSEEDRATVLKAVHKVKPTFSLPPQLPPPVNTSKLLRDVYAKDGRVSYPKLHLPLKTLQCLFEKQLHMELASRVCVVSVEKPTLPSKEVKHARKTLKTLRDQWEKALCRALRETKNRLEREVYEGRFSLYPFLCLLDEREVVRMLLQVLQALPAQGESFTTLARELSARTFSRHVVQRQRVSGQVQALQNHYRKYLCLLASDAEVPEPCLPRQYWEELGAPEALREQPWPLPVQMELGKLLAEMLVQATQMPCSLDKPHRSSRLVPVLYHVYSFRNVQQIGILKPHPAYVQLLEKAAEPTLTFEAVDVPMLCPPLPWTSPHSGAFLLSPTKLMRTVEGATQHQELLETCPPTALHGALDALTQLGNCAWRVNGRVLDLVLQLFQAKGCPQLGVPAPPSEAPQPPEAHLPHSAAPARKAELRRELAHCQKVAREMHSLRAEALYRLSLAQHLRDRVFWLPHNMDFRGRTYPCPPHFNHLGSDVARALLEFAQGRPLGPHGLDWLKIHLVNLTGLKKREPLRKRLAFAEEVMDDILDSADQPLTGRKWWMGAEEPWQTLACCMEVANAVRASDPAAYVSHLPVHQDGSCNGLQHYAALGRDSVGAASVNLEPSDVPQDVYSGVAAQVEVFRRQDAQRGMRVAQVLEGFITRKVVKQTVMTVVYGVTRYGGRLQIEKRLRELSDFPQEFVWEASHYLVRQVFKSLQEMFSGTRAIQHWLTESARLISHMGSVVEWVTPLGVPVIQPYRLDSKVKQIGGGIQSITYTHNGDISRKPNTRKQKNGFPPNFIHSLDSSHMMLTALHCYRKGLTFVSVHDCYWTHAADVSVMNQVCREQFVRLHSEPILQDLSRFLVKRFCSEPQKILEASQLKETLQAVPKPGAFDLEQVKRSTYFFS

[8] = Inhibition of RSV ribonucleoprotein complex in presence of [alpha-32P]ATP by Phosphor imaging analysis; parameters: species or system Respiratory syncytial virus
[9] = target: T1, DNA-directed RNA polymerase, mitochondrial; experiment: Inhibition of recombinant human POLRMT by Phosphor imaging analysis
[10] = species: Homo sapiens; experiment: Inhibition of recombinant human DNA Pol-gamma assessed as single-nucleotide incorporation rate at 50 uM measured for 60 mins in presence of dATP by imaging analysis relative to control; parameters: scale not given: the % may be the effect or the level left
[11] = species: Homo sapiens; experiment: Inhibition of recombinant human DNA Pol-alpha assessed as single-nucleotide incorporation rate at 50 uM measured for 60 mins in presence of dATP by imaging analysis relative to control; parameters: scale not given: the % may be the effect or the level left
[12] = system: Human metapneumovirus; experiment: Anti-viral activity against hMPV CAN99-81 (A1 genotype) infected in rhesus monkey LLC-MK2 cells incubated for 3 to 5 days; format: functional, organism-based
[13] = system: enterovirus D68; experiment: Anti-viral activity against EV-D68 (18952) infected in human RD cells by MTS assay; format: functional, organism-based; conditions: Enterovirus D, 18952, RD
[14] = system: Enterovirus A71; experiment: Anti-viral activity against EV-71 (H) infected in human RD cells by MTS assay; format: functional, organism-based; conditions: Enterovirus A
[15] = system: Influenza A virus; experiment: Anti-viral activity against Influenza A (H1N1) infected in MDCK cells by MTS assay; format: functional, organism-based; conditions: H

| Compound | EC50 [1] [µM] | EC50 [2] [µM] | CC50 [3] [µM] | CC50 at 120 h [4] [µM] | logD at 0.5 h [5] | further results |
| --- | --- | --- | --- | --- | --- | --- |
| COC(=O)C(C)N[P@](=O)(OC[C@@]1(C#N)O[C@@H](c2ccc3c(N)ncnn23)[C@H](OC(C)=O)[C@@H]1OC(C)=O)Oc1ccccc1 (some centres undefined) | 0.051 | 0.127 | > 42 | 10.6 | 2 | – |
| COC(=O)[C@H](C)N[P@](=O)(OC[C@@]1(C#N)O[C@@H](c2ccc3c(N)ncnn23)[C@H](O)[C@@H]1O)Oc1ccccc1 | 0.295 | 0.122 | > 50 | > 38 | 1.1 | Drug metabolism [6]: 15 pM |
| [N-]=[N+]=N[C@]1(CO)O[C@@H](c2ccc3c(N)ncnn23)[C@H](O)[C@@H]1O | 3.59 | 2.02 | > 50 | > 50 | – | – |
| C[C@H](N[P@@](=O)(OC[C@@]1(C#N)O[C@@H](c2ccc3c(N)ncnn23)[C@H](O)[C@@H]1O)Oc1ccccc1)C(=O)OC1CCCCC1 | 0.63 | 3.11 | > 50 | > 50 | – | – |
| C[C@]1(COP(=O)(O)OP(=O)(O)OP(=O)(O)O)O[C@@H](c2ccc3c(N)ncnn23)[C@H](O)[C@@H]1O | – | – | – | – | – | Activity [7]: 3.2% |
| CCCOC(=O)[C@H](C)N[P@](=O)(OC[C@@]1(C#N)O[C@@H](c2ccc3c(N)ncnn23)[C@H](O)[C@@H]1O)Oc1ccccc1 | 0.168 | 0.055 | > 50 | 10.3 | 1.2 | – |
| C[C@]1(CO)O[C@@H](c2ccc3c(N)ncnn23)[C@H](O)[C@@H]1O | > 50 | 25.3 | > 50 | > 50 | – | – |
| N#C[C@]1(CO)O[C@@H](c2ccc3c(N)ncnn23)[C@H](F)[C@@H]1O | 2.31 | – | > 100 | > 50 | – | – |
| CCC(=O)O[C@H]1[C@H](c2ccc3c(N)ncnn23)O[C@](C#N)(CO[P@@](=O)(N[C@@H](C)C(=O)OC2CCCCC2)Oc2ccccc2)[C@H]1OC(=O)CC | 0.041 | 0.06 | 33.9 | 17.1 | 3.5 | – |
| C[C@H](N[P@](=O)(OC[C@@]1(C#N)O[C@@H](c2ccc3c(N)ncnn23)[C@H](O)[C@@H]1O)Oc1ccccc1)C(=O)OC1CCCCC1 | 0.141 | 0.148 | > 100 | > 50 | 2.2 | Drug metabolism [6]: 13 pM |
| Nc1ncnn2c([C@@H]3O[C@](CCl)(COP(=O)(O)OP(=O)(O)OP(=O)(O)O)[C@@H](O)[C@H]3O)ccc12 | – | – | – | – | – | IC50 [8]: 1.1 µM; Activity [7]: 0.1% |
| CCCOC(=O)[C@H](C)N[P@](=O)(OC[C@@]1(C#N)O[C@@H](c2ccc3c(N)ncnn23)[C@H](OC(=O)CC)[C@@H]1OC(=O)CC)Oc1ccccc1 | 0.056 | 0.041 | 27.3 | 7.65 | 2.8 | Drug metabolism [6]: 165 pM |
| CCC(=O)O[C@H]1[C@H](c2ccc3c(N)ncnn23)O[C@](C#N)(CO[P@@](=O)(NC(C)C(=O)OC)Oc2ccccc2)[C@H]1OC(=O)CC (some centres undefined) | 0.019 | 0.092 | 30 | 3.33 | 2.2 | Drug metabolism [6]: 384 pM |
| C[C@H](N[P@](=O)(OC[C@@]1(C#N)O[C@@H](c2ccc3c(N)ncnn23)[C@H](O)[C@@H]1O)Oc1ccccc1)C(=O)OC1CCOCC1 | > 4.3 | 1.49 | > 50 | > 57 | 1.3 | – |
| N#C[C@]1(COP(=O)(O)OP(=O)(O)OP(=O)(O)O)O[C@@H](c2ccc3c(N)ncnn23)[C@H](O)[C@@H]1O | – | – | – | – | – | IC50 [8]: 0.05 µM; Activity [7]: 0.8%; IC50 [9]: > 200 µM; Activity [10]: 0%; Activity [11]: 0% |
| NC(=O)c1ncn([C@@H]2O[C@H](CO)[C@@H](O)[C@H]2O)n1 [RIBAVIRIN] | – | – | – | – | – | EC50 [12]: 34.8 µM |

| Compound | EC50 [1] [µM] | EC50 [2] [µM] | CC50 [3] [µM] | CC50 at 120 h [4] [µM] | logD at 0.5 h [5] | further results |
| --- | --- | --- | --- | --- | --- | --- |
| Nc1ncnn2c([C@@H]3O[C@H](CO)[C@@H](O)[C@H]3O)ccc12 | – | – | 0.037 | < 0.01 | – | – |
| CCOC(=O)[C@H](C)N[P@](=O)(OC[C@@]1(C#N)O[C@@H](c2ccc3c(N)ncnn23)[C@H](O)[C@@H]1O)Oc1ccccc1 | 0.932 | 0.095 | > 100 | 28.7 | 1.1 | – |
| CCCOC(=O)[C@H](C)N[P@](=O)(OC[C@@]1(C#N)O[C@@H](c2ccc3c(N)ncnn23)[C@H](OC(=O)C(C)C)[C@@H]1OC(=O)C(C)C)Oc1ccccc1 | 0.046 | 0.036 | 15.7 | 4.92 | 3.3 | Drug metabolism [6]: 402 pM |
| CCC(CC)OC(=O)[C@H](C)NP(=O)(OC[C@@]1(C#N)O[C@@H](c2ccc3c(N)ncnn23)[C@H](O)[C@@H]1O)Oc1ccccc1 (some centres undefined) | 0.054 | 0.029 | > 93 | 40.1 | 2.1 | – |
| CC(C)S(=O)(=O)n1c(N)nc2ccc(/C(=N/O)c3ccccc3)cc21 [ENVIROXIME] | – | – | – | – | – | EC50 [13]: 0.22 µM; EC50 [14]: 0.02 µM |
| C=C[C@]1(COP(=O)(O)OP(=O)(O)OP(=O)(O)O)O[C@@H](c2ccc3c(N)ncnn23)[C@H](O)[C@@H]1O | – | – | – | – | – | Activity [7]: 0.96% |
| Nc1ncnn2c([C@@H]3O[C@@](CO)(CCl)[C@@H](O)[C@H]3O)ccc12 | > 25 | > 50 | > 38 | > 50 | – | – |
| NC(=O)c1nc(F)cnc1O [FAVIPIRAVIR] | – | – | – | – | – | EC50 [15]: 5.87 µM |
| [N-]=[N+]=N[C@]1(COP(=O)(O)OP(=O)(O)OP(=O)(O)O)O[C@@H](c2ccc3c(N)ncnn23)[C@H](O)[C@@H]1O | – | – | – | – | – | IC50 [8]: 0.12 µM; Activity [7]: 132%; IC50 [9]: 1 µM; Activity [10]: 0.62%; Activity [11]: 0% |
| CC(C)C(=O)O[C@H]1[C@H](c2ccc3c(N)ncnn23)O[C@](C#N)(CO[P@@](=O)(N[C@@H](C)C(=O)OC2CCCCC2)Oc2ccccc2)[C@H]1OC(=O)C(C)C | 0.017 | 0.06 | 18.1 | 8.7 | 4 | Drug metabolism [6]: 170 pM |
| CC(=O)O[C@H]1[C@H](c2ccc3c(N)ncnn23)O[C@](C#N)(CO[P@@](=O)(N[C@@H](C)C(=O)OC2CCCCC2)Oc2ccccc2)[C@H]1OC(C)=O | 0.023 | 0.206 | > 49 | 29.8 | 2.9 | Drug metabolism [6]: 40 pM |
| N#C[C@]1(COP(=O)(O)OP(=O)(O)OP(=O)(O)O)O[C@@H](c2ccc3c(N)ncnn23)[C@H](F)[C@@H]1O | – | – | – | – | – | IC50 [8]: 0.086 µM; Activity [7]: 0.03%; IC50 [9]: 115 µM; Activity [10]: 2.3%; Activity [11]: 8.7% |
| C=C[C@]1(CO)O[C@@H](c2ccc3c(N)ncnn23)[C@H](O)[C@@H]1O | > 50 | > 50 | > 50 | > 50 | – | – |
| N#C[C@]1(CO)O[C@@H](c2ccc3c(N)ncnn23)[C@H](O)[C@@H]1O | 6.23 | 6.83 | > 50 | > 50 | – | – |
| CC(C)OC(=O)[C@H](C)N[P@](=O)(OC[C@@]1(C#N)O[C@@H](c2ccc3c(N)ncnn23)[C@H](O)[C@@H]1O)Oc1ccccc1 | 0.933 | 0.391 | > 50 | > 57 | 1.3 | – |
